According to US5571804A, “Cephalosporin antibiotics” (priority 1993, dated 1996):

Assays:
[1] = tested on: Staphylococcus aureus 6538P; assay: MIC, two-fold agar dilution; assay type: cell-based; conditions: Muller-Hinton agar, 37° C., 20 hours
[2] = tested on: Staphylococcus aureus giorgio; assay: MIC, two-fold agar dilution; assay type: cell-based; conditions: Muller-Hinton agar, 37° C., 20 hours
[3] = tested on: Staphylococcus aureus 77; assay: MIC, two-fold agar dilution; assay type: cell-based; conditions: Muller-Hinton agar, 37° C., 20 hours
[4] = tested on: Staphylococcus aureus 241; assay: MIC, two-fold agar dilution; assay type: cell-based; conditions: Muller-Hinton agar, 37° C., 20 hours
[5] = tested on: Staphylococcus epidermidis 887E; assay: MIC, two-fold agar dilution; assay type: cell-based; conditions: Muller-Hinton agar, 37° C., 20 hours
[6] = tested on: Streptococcus laecalis 29212A; assay: MIC, two-fold agar dilution; assay type: cell-based; conditions: Muller-Hinton agar, 37° C., 20 hours
[7] = tested on: E. coli 10536; assay: MIC, two-fold agar dilution; assay type: cell-based; conditions: Muller-Hinton agar, 37° C., 20 hours
[8] = tested on: E. coli 3190Y; assay: MIC, two-fold agar dilution; assay type: cell-based; conditions: Muller-Hinton agar, 37° C., 20 hours
[9] = tested on: E. coli 851E; assay: MIC, two-fold agar dilution; assay type: cell-based; conditions: Muller-Hinton agar, 37° C., 20 hours
[10] = tested on: E. coli TEM1 1193E; assay: MIC, two-fold agar dilution; assay type: cell-based; conditions: Muller-Hinton agar, 37° C., 20 hours
[11] = tested on: E. coli TEM3 3455E; assay: MIC, two-fold agar dilution; assay type: cell-based; conditions: Muller-Hinton agar, 37° C., 20 hours
[12] = tested on: E. coli TEM5 3739E; assay: MIC, two-fold agar dilution; assay type: cell-based; conditions: Muller-Hinton agar, 37° C., 20 hours
[13] = tested on: E. coli TEM7 3457E; assay: MIC, two-fold agar dilution; assay type: cell-based; conditions: Muller-Hinton agar, 37° C., 20 hours
[14] = tested on: E. coli TEM9 2639E; assay: MIC, two-fold agar dilution; assay type: cell-based; conditions: Muller-Hinton agar, 37° C., 20 hours
[15] = tested on: Pseudomonas aeruginosa 1912E; assay: MIC, two-fold agar dilution; assay type: cell-based; conditions: Muller-Hinton agar, 37° C., 20 hours
[16] = tested on: Pseudomonas aeruginosa 10145; assay: MIC, two-fold agar dilution; assay type: cell-based; conditions: Muller-Hinton agar, 37° C., 20 hours
[17] = tested on: Pseudomonas aeruginosa 6065; assay: MIC, two-fold agar dilution; assay type: cell-based; conditions: Muller-Hinton agar, 37° C., 20 hours
[18] = tested on: Acinetobacter calcoaceticus 15473A; assay: MIC, two-fold agar dilution; assay type: cell-based; conditions: Muller-Hinton agar, 37° C., 20 hours
[19] = tested on: Citrobacter diversus 2046E; assay: MIC, two-fold agar dilution; assay type: cell-based; conditions: Muller-Hinton agar, 37° C., 20 hours
[20] = tested on: Enterobacter cloacae IND + VE 1194E; assay: MIC, two-fold agar dilution; assay type: cell-based; conditions: Muller-Hinton agar, 37° C., 20 hours
[21] = tested on: Enterobacter cloacae P99; assay: MIC, two-fold agar dilution; assay type: cell-based; conditions: Muller-Hinton agar, 37° C., 20 hours
[22] = tested on: Klebsiella aerogenes SHV-1 1976E; assay: MIC, two-fold agar dilution; assay type: cell-based; conditions: Muller-Hinton agar, 37° C., 20 hours
[23] = tested on: Klebsiella aerogenes K1 + 1082E; assay: MIC, two-fold agar dilution; assay type: cell-based; conditions: Muller-Hinton agar, 37° C., 20 hours
[24] = tested on: Proteus vularis 6059A; assay: MIC, two-fold agar dilution; assay type: cell-based; conditions: Muller-Hinton agar, 37° C., 20 hours
[25] = tested on: Serratia marcescens 1826E; assay: MIC, two-fold agar dilution; assay type: cell-based; conditions: Muller-Hinton agar, 37° C., 20 hours
[26] = tested on: Salmonella typhimurium 14028A; assay: MIC, two-fold agar dilution; assay type: cell-based; conditions: Muller-Hinton agar, 37° C., 20 hours
[27] = pharmakinetic variables in SD rats; conditions: rat, in vivo, iv, 20 mg/kg
Description: The pharmakinetic variables were determined using SD rats (.male.) of a body weight of 230±10g as follows. The "S" compound of each of the Examples was injected to femoral vein of 4-5 rats by 20mg/Kg and then blood was collected from femoral artery in 1, 2.5, 5, 10, 20, 40, 60 and 120 min.

Structure (SMILES) | minimal inhibitory concentration (MIC) [1] | minimal inhibitory concentration (MIC) [2] | minimal inhibitory concentration (MIC) [3] | minimal inhibitory concentration (MIC) [4] | minimal inhibitory concentration (MIC) [5] | minimal inhibitory concentration (MIC) [6] | minimal inhibitory concentration (MIC) [7] | minimal inhibitory concentration (MIC) [8] | minimal inhibitory concentration (MIC) [9] | minimal inhibitory concentration (MIC) [10] | minimal inhibitory concentration (MIC) [11] | minimal inhibitory concentration (MIC) [12] | minimal inhibitory concentration (MIC) [13] | minimal inhibitory concentration (MIC) [14] | minimal inhibitory concentration (MIC) [15] | minimal inhibitory concentration (MIC) [16] | minimal inhibitory concentration (MIC) [17] | minimal inhibitory concentration (MIC) [18] | minimal inhibitory concentration (MIC) [19] | minimal inhibitory concentration (MIC) [20] | also measured
Nc1ccnc(SCC2=C(C(=O)O)N3C(=O)[C@@H](NC(=O)/C(=N\O[C@H](C(=O)O)c4ccc(O)c(O)c4)c4csc(N)n4)[C@H]3SC2)n1 [Compound I-3S, 7-[(Z)-2-(aminothiazol-4-yl)-2-(α-carboxyl-3,4-dihydroxybenzyloxyimino)acetamido]-3-(4-amino-pyrimidine-2-yl) thiomethyl-3-cephem-4-carboxylate] | 2 | 1 | 4 | 128 | 32 | 4 | ≤ 0.008 | 0.031 | 0.063 | 0.031 | 0.016 | 0.063 | 0.063 | 0.25 | 0.25 | 0.13 | 0.5 | 0.13 | 0.031 | 2 | minimal inhibitory concentration (MIC) [21]: 8; minimal inhibitory concentration (MIC) [22]: 0.13; minimal inhibitory concentration (MIC) [23]: 0.031; minimal inhibitory concentration (MIC) [24]: 0.13; minimal inhibitory concentration (MIC) [25]: 0.25; minimal inhibitory concentration (MIC) [26]: 0.016; AUC at 2 h [27]: 57900 ng·h/mL; half-life [27]: 58 min
Nc1nc(/C(=N/O[C@H](C(=O)O)c2ccc(O)c(O)c2)C(=O)N[C@@H]2C(=O)N3C(C(=O)O)=C(CSc4nc(N)c(N)c(N)n4)CS[C@H]23)cs1 [Compound I-5S, 7-[(Z)-2-(aminothiazol-4-yl)-2-(α-carboxy-3,4-dihydroxybenzyloxyimino)acetamido]-3-(4,5,6-triaminopyrimidine-2-yl)thiomethyl-3-cephem-4-carboxylate] | 2 | 1 | 8 | 64 | 32 | 4 | ≤ 0.008 | 0.031 | 0.031 | 0.031 | 0.016 | 0.063 | ≤ 0.008 | 0.25 | 0.25 | 0.13 | 0.25 | 0.13 | 0.063 | 2 | minimal inhibitory concentration (MIC) [21]: 8; minimal inhibitory concentration (MIC) [22]: 0.13; minimal inhibitory concentration (MIC) [23]: 0.031; minimal inhibitory concentration (MIC) [24]: 0.13; minimal inhibitory concentration (MIC) [25]: 0.25; minimal inhibitory concentration (MIC) [26]: 0.016; AUC at 2 h [27]: 59500 ng·h/mL; half-life [27]: 59 min
Cc1c(N)nc(SCC2=C(C(=O)O)N3C(=O)[C@@H](NC(=O)/C(=N\O[C@H](C(=O)O)c4ccc(O)c(O)c4)c4csc(N)n4)[C@H]3SC2)nc1N [Compound I-2S, 7-[(Z)-2-(aminothiazol-4-yl)-2-(α-carboxyl-3,4-dihydroxybenzyloxyimino)acetamido]-3-(4,6-diamino-5-methylpyrimidine-2-yl)thiomethyl-3-cephem-4-carboxylate] | 1 | 1 | 4 | 64 | 16 | 4 | ≤ 0.008 | 0.063 | 0.031 | 0.031 | 0.016 | 0.063 | ≤ 0.008 | 0.25 | 0.5 | 0.13 | 0.25 | 0.25 | 0.016 | 4 | minimal inhibitory concentration (MIC) [21]: 8; minimal inhibitory concentration (MIC) [22]: 0.13; minimal inhibitory concentration (MIC) [23]: 0.031; minimal inhibitory concentration (MIC) [24]: 0.13; minimal inhibitory concentration (MIC) [25]: 0.25; minimal inhibitory concentration (MIC) [26]: 0.016; AUC at 2 h [27]: 54100 ng·h/mL; half-life [27]: 55 min
Nc1cc(N)nc(SCC2=C(C(=O)O)N3C(=O)[C@@H](NC(=O)/C(=N\O[C@H](C(=O)O)c4ccc(O)c(O)c4)c4csc(N)n4)[C@H]3SC2)n1 [Compound I-1S, 7-[(Z)-2-(aminothiazol-4-yl)-2-(α-carboxy-3,4-dihydroxybenzyloxyimino)acetamido]-3-(4,6-diamino-pyrimidine-2-yl) thiomethyl-3-cephem-4-carboxylate] | 2 | 1 | 8 | 64 | 32 | 4 | ≤ 0.008 | 0.031 | 0.031 | 0.031 | 0.016 | 0.063 | ≤ 0.008 | 0.25 | 0.25 | 0.13 | 0.25 | 0.13 | 0.063 | 2 | minimal inhibitory concentration (MIC) [21]: 16; minimal inhibitory concentration (MIC) [22]: 0.13; minimal inhibitory concentration (MIC) [23]: 0.031; minimal inhibitory concentration (MIC) [24]: 0.13; minimal inhibitory concentration (MIC) [25]: 0.25; minimal inhibitory concentration (MIC) [26]: 0.016; AUC at 2 h [27]: 61600 ng·h/mL; half-life [27]: 62 min
